Nine compounds from ChEMBL document CHEMBL1201862, “PubChem BioAssay data set” (2004) can be followed below.

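96-well plates; 48 h exposure; 5 concentrations. Endpoints by linear interpolation between flanking doses. Not reached: highest tested concentration assigned. Here, GI50 denotes the concentration required for 50% inhibition of growth.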 Active and inactive are the calls of the source. No stated cut-off is given here; in the data, active = GI50 up to about 1.1 µM and inactive = higher.

Test systems include A549; COLO 205; DU-145; HT-29; K562; KM12; LOX IMVI; M14; NCI-H23; NCI-H522; NCI/ADR-RES; OVCAR-3; OVCAR-4; OVCAR-8; RXF 393; SK-MEL-28; SK-MEL-5; SR; TK-10; UACC-257.
Holding throughout (test): NCI tumour cell line growth inhibition, 48 h

In the case of `Oc1ccnc(SCc2ccc(Cl)cc2)n1`, the GI50 with A549, in the experiment with COLO 205, in the experiment with DU-145, in the experiment with HT-29, in the experiment on K562 and in the experiment on KM12 was > 100 µM (inactive) each time. Further, the GI50 in the experiment on LOX IMVI was > 100 µM (inactive); in the experiment on M14, > 100 µM (inactive); in the experiment on NCI-H23, > 100 µM (inactive); in the experiment with NCI-H522, 62.2 µM (inactive); with NCI/ADR-RES, > 100 µM (inactive); in the experiment with OVCAR-3, 57.3 µM (inactive). Further, the GI50 with OVCAR-4, with OVCAR-8, in the experiment with RXF 393, with SK-MEL-28, in the experiment on SK-MEL-5 and in the experiment on SR was > 100 µM (inactive) throughout. Also, the GI50 in the experiment with TK-10 and with UACC-257 was > 100 µM (inactive) throughout.
For `O=C1C=C(OCCCl)C(=O)c2c(O)ccc(O)c21`, the GI50 in the experiment with A549 is 0.262 µM (active); with COLO 205 it was 0.181 µM (active); in the experiment on DU-145 it was 0.29 µM (active); in the experiment with HT-29 it was 0.378 µM (active); in the experiment with K562, 2.25 µM (inactive); in the experiment on KM12, 2.07 µM (inactive). Moreover, the GI50 in the experiment with LOX IMVI was 0.202 µM (active); in the experiment on M14 it was 0.177 µM (active); with NCI-H23, 0.242 µM (active); in the experiment with NCI-H522 it was 2.32 µM (inactive); in the experiment with NCI/ADR-RES it was 2.56 µM (inactive); in the experiment with OVCAR-3, 1.06 µM (active). Also, the GI50 with OVCAR-4 is 1.64 µM (inactive); in the experiment on OVCAR-8, 1.94 µM (inactive); in the experiment on RXF 393, 1.92 µM (inactive); in the experiment with SK-MEL-28 it was 0.172 µM (active); in the experiment on SK-MEL-5 it was 0.173 µM (active); with SR, 0.861 µM (active). The GI50 in the experiment with TK-10 is 2.38 µM (inactive); with UACC-257 it was 0.177 µM (active).
Take `COc1ccc2nc(N/N=C/c3ccc(C)s3)cc(C)c2c1`: the GI50 in the experiment on A549 is > 100 µM (inactive); in the experiment on COLO 205, 19.4 µM (inactive); in the experiment on DU-145 it was 17.7 µM (inactive); in the experiment on HT-29, 6.08 µM (inactive); in the experiment on K562, 14 µM (inactive); in the experiment with KM12, 19.7 µM (inactive). Besides, the GI50 with LOX IMVI was 16.3 µM (inactive); in the experiment with M14, 16.6 µM (inactive); in the experiment with NCI-H23, 13.5 µM (inactive); in the experiment on NCI-H522 it was 39.7 µM (inactive); in the experiment with NCI/ADR-RES, 19.7 µM (inactive); in the experiment with OVCAR-3, 19.6 µM (inactive). For the same compound, the GI50 in the experiment on OVCAR-4 is 13.9 µM (inactive); with OVCAR-8, 19.5 µM (inactive); with RXF 393, 19.2 µM (inactive); with SK-MEL-28 it was 26.5 µM (inactive); in the experiment with SK-MEL-5, 15.5 µM (inactive); in the experiment on SR it was 25.4 µM (inactive). The GI50 in the experiment on TK-10 was 21.6 µM (inactive); in the experiment on UACC-257, 17.1 µM (inactive).
Turning to `O=C(c1ccsc1)c1cc2c(s1)C(=O)c1ccsc1C2=O`, the GI50 is 0.612 µM (active) in the experiment on A549; 1.51 µM (inactive) in the experiment with COLO 205; 0.159 µM (active) in the experiment with DU-145; 0.676 µM (active) in the experiment on HT-29; 0.184 µM (active) in the experiment on K562; 0.191 µM (active) with KM12. Moreover, the GI50 in the experiment on LOX IMVI was 0.0211 µM (active); with M14, 0.116 µM (active); in the experiment with NCI-H23, 0.137 µM (active); with NCI-H522, 0.137 µM (active); in the experiment on NCI/ADR-RES, 0.137 µM (active); in the experiment on OVCAR-3, 0.0624 µM (active). Besides, the GI50 was 0.177 µM (active) with OVCAR-4; 0.178 µM (active) with OVCAR-8; 0.178 µM (active) with RXF 393; 0.142 µM (active) in the experiment on SK-MEL-28; 0.0279 µM (active) in the experiment with SK-MEL-5; 1.87 µM (inactive) in the experiment on SR. The GI50 is 0.64 µM (active) in the experiment on TK-10 and 0.174 µM (active) in the experiment on UACC-257.
Turning to `O=C1/C(=C/C=C/c2ccccc2)CCC1CNc1ccccc1` (stereo not given), the GI50 with A549 is > 66.2 µM (inactive); with COLO 205, 28.9 µM (inactive); in the experiment on DU-145, > 93.3 µM (inactive); with HT-29 it was 24.7 µM (inactive); with K562, 2.71 µM (inactive); in the experiment with KM12, 14.9 µM (inactive). In addition, the GI50 was 18.6 µM (inactive) with LOX IMVI; 30.2 µM (inactive) in the experiment on M14; 27.7 µM (inactive) in the experiment with NCI-H23; 9.62 µM (inactive) in the experiment with NCI-H522; 96.8 µM (inactive) with NCI/ADR-RES; 23.7 µM (inactive) in the experiment on OVCAR-3. The GI50 with OVCAR-4 is 99.3 µM (inactive); in the experiment on OVCAR-8, 37.4 µM (inactive); in the experiment on RXF 393, 19.8 µM (inactive); in the experiment with SK-MEL-28, 44.6 µM (inactive); in the experiment on SK-MEL-5 it was 67 µM (inactive); in the experiment with SR, 3.52 µM (inactive). Further, the GI50 was 33 µM (inactive) in the experiment with TK-10 and 42.5 µM (inactive) in the experiment with UACC-257.
`O=c1oc2ccc([N+](=O)[O-])cc2c(Nc2ccc3c(c2)S(=O)(=O)c2ccccc2O3)c1[N+](=O)[O-]`: the GI50 in the experiment on A549 was > 100 µM (inactive); in the experiment on COLO 205 it was > 100 µM (inactive); in the experiment with DU-145, > 100 µM (inactive); in the experiment with HT-29 it was 65.9 µM (inactive); with K562, 33 µM (inactive); in the experiment on KM12 it was > 100 µM (inactive). Besides, the GI50 in the experiment on LOX IMVI was 78.2 µM (inactive); in the experiment on M14 it was 42.9 µM (inactive); in the experiment with NCI-H23, > 100 µM (inactive); with NCI-H522 it was 87.1 µM (inactive); in the experiment with NCI/ADR-RES it was > 100 µM (inactive); in the experiment on OVCAR-3, 69.3 µM (inactive). Besides, the GI50 is > 100 µM (inactive) with OVCAR-4; > 100 µM (inactive) with OVCAR-8; 45.4 µM (inactive) in the experiment with RXF 393; 46.3 µM (inactive) in the experiment on SK-MEL-28; 81.8 µM (inactive) in the experiment on SK-MEL-5; 32.4 µM (inactive) with SR. The GI50 in the experiment with TK-10 and in the experiment with UACC-257 was > 100 µM (inactive) in each case.
Turning to `C(=N\c1nc2cc3sc(/N=C/c4cccs4)nc3cc2s1)/c1cccs1`, the GI50 was 11.5 µM (inactive) in the experiment with A549; 3.4 µM (inactive) in the experiment on COLO 205; > 100 µM (inactive) in the experiment with DU-145; 44.8 µM (inactive) in the experiment on HT-29; > 100 µM (inactive) in the experiment with K562; > 100 µM (inactive) in the experiment on KM12. Further, the GI50 in the experiment with LOX IMVI is 66.5 µM (inactive); in the experiment on M14 it was > 100 µM (inactive); with NCI-H23, 69.2 µM (inactive); in the experiment on NCI-H522 it was 45.2 µM (inactive); in the experiment with NCI/ADR-RES, > 100 µM (inactive); in the experiment with OVCAR-3 it was > 100 µM (inactive). Besides, the GI50 in the experiment on OVCAR-4 is > 100 µM (inactive); in the experiment with OVCAR-8 it was > 100 µM (inactive); in the experiment with RXF 393, > 100 µM (inactive); in the experiment with SK-MEL-28 it was > 100 µM (inactive); in the experiment with SK-MEL-5, 33 µM (inactive); in the experiment with SR it was 26.1 µM (inactive). The results for the GI50 in the experiment on TK-10 and with UACC-257 were 26.2 µM (inactive) and 70.1 µM (inactive), respectively.
Turning to `O=C(CBr)NCCc1c[nH]c2ccccc12`, the GI50 with A549 was 2.14 µM (inactive); in the experiment on COLO 205 it was 1.65 µM (inactive); in the experiment with DU-145 it was 2.07 µM (inactive); with HT-29 it was 1.83 µM (inactive); in the experiment with K562 it was 1.44 µM (inactive); in the experiment on KM12, 1.93 µM (inactive). Also, the GI50 in the experiment with LOX IMVI was 0.482 µM (active); in the experiment with M14, 1.66 µM (inactive); in the experiment with NCI-H23, 1.46 µM (inactive); in the experiment with NCI-H522, 0.229 µM (active); with NCI/ADR-RES, 2.11 µM (inactive); in the experiment with OVCAR-3, 1.92 µM (inactive). Besides, the GI50 was 1.79 µM (inactive) in the experiment with OVCAR-4; 3.33 µM (inactive) in the experiment with OVCAR-8; 1.09 µM (active) in the experiment on RXF 393; 3.49 µM (inactive) in the experiment with SK-MEL-28; 1.17 µM (inactive) in the experiment with SK-MEL-5; 0.344 µM (active) in the experiment with SR. The GI50 in the experiment with TK-10 was 1.86 µM (inactive); in the experiment on UACC-257 it was 3.01 µM (inactive).
On to `Nc1ccc(S(=O)(=O)Nc2cnc3ccccc3n2)cc1` [SULFAQUINOXALINE], for which the GI50 with A549, in the experiment on COLO 205, with DU-145, in the experiment on HT-29, in the experiment with K562 and in the experiment with KM12 was > 100 µM (inactive) each time. The GI50 in the experiment on LOX IMVI, in the experiment with M14, with NCI-H23, in the experiment with NCI-H522, in the experiment on NCI/ADR-RES and in the experiment on OVCAR-3 was > 100 µM (inactive) each time. Besides, the GI50 with OVCAR-4, in the experiment on OVCAR-8, with RXF 393, with SK-MEL-28, in the experiment with SK-MEL-5 and in the experiment with SR was > 100 µM (inactive) throughout. Further, the GI50 with TK-10 and in the experiment on UACC-257 was > 100 µM (inactive) each time.
